Source: patent US20160193148A1, “LIPOSOMAL FORMULATIONS FOR THE TREATMENT OF BACTERIAL INFECTIONS” (UNIVERSITY OF GEORGIA RESEARCH FOUNDATION, INC., priority 2013, published 2016)

Tested on: R. equi
Assay: Intracellular killing of R. equi in J774.A1 macrophages
Type: cell-based, Rhodococcus equi
Conditions: 10 μg/mL; J774.A1 macrophages infected with virulent R. equi; 4 experiments
Procedure: The efficacy of liposomal gentamicin compared with clarithromycin or rifampin for intracellular killing of R. equi in J774.A1 macrophages were studies in this example. […] The final concentration of gentamicin in the liposome formulations was measured and the percentage of encapsulation was calculated.
In vitro infection of J774A.1 macrophages with virulent R. equi and subsequent treatment with liposomal gentamicin (G-DP or G-PEG), clarithromycin (CLR), or rifampin (RIF) at a concentration of 10 μg/mL was performed using a published methodology (i.e. Berghaus et al. Plasma pharmacokinetics, pulmonary distribution, and in vitro activity of gamithromycin in foals. J Vet Pharmacol Ther. 2012 February; 35(1):59-66). […] Fold reduction in the number of intracellular R. equi compared to untreated cells in J774.A1 macrophages infected with virulent R. equi are presented in FIG. 2, showing mean (±SD) of 4 independent experiments.

Row | SMILES | mean fold-reduction in the number of intracellular R. equi compared to untreated cells [fold]
1 | CC[C@H]1OC(=O)[C@H](C)[C@@H](O[C@H]2C[C@@](C)(OC)[C@@H](O)[C@H](C)O2)[C@H](C)[C@@H](O[C@@H]2O[C@H](C)C[C@H](N(C)C)[C@H]2O)[C@](C)(OC)C[C@@H](C)C(=O)[C@H](C)[C@@H](O)[C@]1(C)O [CLR, clarithromycin] | 1100
2 | CO[C@H]1/C=C/O[C@@]2(C)Oc3c(C)c(O)c4c(O)c(c(/C=N/N5CCN(C)CC5)c(O)c4c3C2=O)NC(=O)/C(C)=C\C=C\[C@H](C)[C@H](O)[C@@H](C)[C@@H](O)[C@@H](C)[C@H](OC(C)=O)[C@@H]1C [RIF, rifampin] | 1500
